Measurements published in paper PMC3183106 (Pharmacological research : the official journal of the …, 2011).
Like-named read-outs stand apart in the source and are kept apart here.

Legend:
[1] = mean ± SEM
[2] = mean ± SEM; remark: listed apart in the source
[3] = cited from earlier work
[4] = cited from earlier work; remark: listed apart in the source
[5] = human, in vivo

For `CSCCCCNC(=S)SC[C@H](N)C(=O)NCC(=O)O` [ERN-CG, ERN-cysteinylglycine], the “Percent of metabolite relative to total for respective ITC in the plasma” value ([1]; 12 hrs after broccoli sprouts, GSTP1 A/A (n=7)) was 69.4 ± 1.38%, the “Percent of metabolite relative to total for respective ITC in the plasma” value ([1]; 12 hrs after broccoli sprouts, GSTP1 A/G (n=5)) was 67.6 ± 1.19% and the “Percent of metabolite relative to total for respective ITC in the plasma” value ([1]; 12 hrs after broccoli supplement, GSTP1 A/A (n=7)) was 72.9 ± 1.78%. For the same compound, the “Percent of metabolite relative to total for respective ITC in the plasma” value ([1]; 12 hrs after broccoli supplement, GSTP1 A/G (n=5)) was 75.1 ± 1.44%, the “Percent of metabolite relative to total metabolites for respective ITC in urine” value ([2]; first 12 hrs after broccoli sprouts, GSTP1 A/A (n=7)) was 0.11 ± 0.01% and the “Percent of metabolite relative to total metabolites for respective ITC in urine” value ([2]; first 12 hrs after broccoli sprouts, GSTP1 A/G (n=5)) was 0.12 ± 0.04%. For the same compound, the “Percent of metabolite relative to total metabolites for respective ITC in urine” value ([2]; first 12 hrs after broccoli supplement, GSTP1 A/A (n=7)) was 0.89 ± 0.31% and the “Percent of metabolite relative to total metabolites for respective ITC in urine” value ([2]; first 12 hrs after broccoli supplement, GSTP1 A/G (n=5)) was 2.00 ± 0.77%.

In the case of `CC(C)=CCC/C(C)=C/C=C/C(C)=C/C=C/C(C)=C/C=C/C=C(C)/C=C/C=C(C)/C=C/C=C(\C)CCC=C(C)C` [Lycopene], the “Increase in serum concentrations” value ([3]; heat processed tomato juice) is listed as 2–3 fold and the “Change in serum concentrations” value ([3]; unprocessed tomato juice) is listed as “no change”.

In the case of `C[S+]([O-])CCCCN=C=S` (stereo not shown) [SFN, sulforaphane], the “SFN recovered after consumption” value ([4]; broccoli powder) is given as 19%, the “SFN recovered after consumption” value ([4]; broccoli sprouts) is given as 74% and the “Time by which total metabolites almost completely cleared from the plasma” value [5] is given as no more than 24 h.
